From patent US11970504B1, “2-benzo-[3,4-b] quinolino-{b,g]indeno [1′,2′:3,4] fluoreno-[1,2-d] Oxonine-5,11,16,21-tetraone as an antimicrobial compound” (KING FAISAL UNIVERSITY, priority 2023, dated 2024)

Legend:
Pseudomonas aeruginosa = experiment: Antimicrobial screening by agar dilution, Pseudomonas aeruginosa; assay type: cell-based; settings: after 10, 20, 40 and 60 minutes at all dilutions 1:100, 1:200, 1:400, 1:800
Method: (§1) The antibacterial properties of the synthesized compound 2-benzo-[3,4-b]quinolino-[b,g]indeno[1′,2′:3,4]fluoreno-[1,2-d]oxonine-5,11,16,21-tetraone were studied by the method of agar dilution. Test solutions of each compound was prepared in concentration of 1% using dimethylformamide as a solvent then they are diluted in physiological solution to obtain the final experimental dilutions 1:100, 1:200, 1:400, 1:800. The effect of these substances are compared with furacillin in a controllable study. The testing microbes used were gram positive bacteria Staphylococcus aureus, gram negative bacteria Pseudomonas aeruginosa and Escherichia co/i and Candida albicans fungus. The experiments used for this survey were meat-pentonlu agar (EPA) for cultivation of bacteria and Saburo environment for the fungus. Each experiment used 1 mL of test solution on each plate […]. Two drops of emulsified with microbes feel were added. All experimental samples were taken from the agar after 10, 20, 40, 60 minutes in the environment on the basis of Patrk planted. The bacteria were cultivated at a temperature of 37° C. for 1 day and the mushroom was kept in a thermostat for […] at a temperature of 28° C. Then results were checked.

Staphylococcus aureus = experiment: Antimicrobial screening by agar dilution, Staphylococcus aureus; assay type: cell-based; settings: after 10, 20, 40 and 60 minutes at all dilutions 1:100, 1:200, 1:400, 1:800
Method: as §1

Candida albicans = experiment: Antimicrobial screening by agar dilution, Candida albicans; assay type: cell-based; settings: after 10, 20, 40 and 60 minutes at all dilutions 1:100, 1:200, 1:400, 1:800
Method: as §1

Escherichia coli = experiment: Antimicrobial screening by agar dilution, Escherichia coli; assay type: cell-based; settings: after 10, 20, 40 and 60 minutes at all dilutions 1:100, 1:200, 1:400, 1:800
Method: as §1

O=C1Oc2nc3ccccc3cc2-c2c(c3c4ccccc4c(=O)c3c3c2c(=O)c2ccccc23)C(=O)c2ccccc21 [2-benzo-[3,4-b]quinolino-[b,g]indeno[1′,2′:3,4]fluoreno-[1,2-d]oxonine-5,11,16,21-tetraone]
inhibition activity (Pseudomonas aeruginosa): highest inhibition activity
melting point: 251 °C
inhibition activity (Staphylococcus aureus): highest inhibition activity
inhibition activity (Candida albicans): highest inhibition activity
inhibition activity (Escherichia coli): highest inhibition activity
